Series [1] is described as follows: UV absorption spectrum in CH2Cl2. The series is classed as physicochemical.
Series [2] is described as follows: Photostability under irradiation at high dilution with a Heraeus 150 W Hg-lamp. Conditions: irradiation at high dilution (50 ppm).
The nature of series [3]: Miscibility with cosmetic solvents such as Cétiol LC (liposolubility). Conditions: such as Cétiol LC (Cocoyl caprylate caprate).

For the compound `CCCCCC(CC)c1cc(C)cc(-n2nc3ccccc3n2)c1O` (centres unmarked) [Example 3, 2-(benzotriazole-2-yl)-4-methyl-6-(3-octyl)-phenol], in series [1], the “UV absorption maximum, first (UV-B) band” value stood at 306 nm and the “UV absorption maximum, second (UV-A) band” value is 346 nm.
By melting point is commonly meant the temperature of the solid-liquid transition. Compound `C=CC(CCCCC)c1cc(C)cc(-n2nc3ccccc3n2)c1O` (centres unmarked) [Example 1, 2-Benzotriazole-2-yl-4-methyl-6-(1-octen-3-yl)-phenol] yielded a melting point of 37 to 38 °C. In series [1], the “UV absorption maximum, first (UV-B) band” value was determined as 306 nm and the “UV absorption maximum, second (UV-A) band” value was determined as 344 nm. Also, in series [2], the Photostability result is reported as “photostable”. Further, the “Miscibility with cosmetic solvents” value in series [3] is “easily mixable”.
Regarding `CCCC(CC)c1cc(C(C)(C)CC(C)(C)C)cc(-n2nc3ccccc3n2)c1O` (centres unmarked) [Example 4, 2-(benzotriazole-2-yl)-4-(1,1,3,3-tetramethylbutyl)-6-(3-hexyl)-phenol], in series [1], the “UV absorption maximum, first (UV-B) band” value worked out at 306 nm and the “UV absorption maximum, second (UV-A) band” value was 346 nm.
As for `C=CC(CCC)c1cc(C(C)(C)CC(C)(C)C)cc(-n2nc3ccccc3n2)c1O` (centres unmarked) [Example 2, 2-(benzotriazole-2-yl)-4-(1,1,3,3-tetramethylbutyl)-6-(1-hexen-3-yl)-phenol], the melting point was 80 to 81 °C. Further, in series [1], the “UV absorption maximum, first (UV-B) band” value came to 305 nm and the “UV absorption maximum, second (UV-A) band” value was 343 nm.
As to `CCCCC=CC(C)c1cc(C)cc(-n2nc3ccccc3n2)c1O` (centres unmarked) [8% byproduct, 2-(benzotriazole-2-yl)-4-methyl-6-(3-octen-2-yl)-phenol], in series [1], the “UV absorption maximum, first (UV-B) band” value came to 306 nm and the “UV absorption maximum, second (UV-A) band” value worked out at 344 nm.

The values above are taken from US20010023293A1, “2-hydroxyphenyl benzotriazoles as uv-a/b filters” (ROCHE VITAMINS INC., priority 2000, published 2001).
